Laboratory results reported in patent US20060069132A1, “Azolecarboxamide herbicides” (priority 2004, published 2006).

Tests used:
rice = experiment: Test B pre-/postemergence herbicide test; assay type: in vivo, Oryza sativa; conditions: preemergence
In short: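 Seeds were planted and treated preemergence with compounds formulated in a non-phytotoxic solvent mixture containing surfactant, while plants at the 1- to 4-leaf stage (2 to 18 cm) received postemergence sprays. Flooded paddy plants were grown to the 2-leaf stage. After 13 to 15 days in a greenhouse, injury was visually rated 0–100 against untreated controls.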

large crabgrass [1] = experiment: Test A pre-/postemergence herbicide test; assay type: in vivo, Digitaria sanguinalis
In short: (§1)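 Pre: seeded sandy loam, directed soil spray, compound in non-phytotoxic solvent + surfactant. Post: 1–2-leaf plants (2–10 cm), sprayed to runoff. Greenhouse ~10 d; visual injury vs untreated, 0–100 scale.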

goosegrass = experiment: Test C pre-/postemergence herbicide test; assay type: in vivo, Eleusine indica; conditions: for Goosegrass plant response rating: 500 g ai/ha
In short: (§2)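 Visual injury scores run from 0 (no effect) to 100 (complete control), assessed relative to untreated controls 12 to 14 days after treatment in the greenhouse. Chemicals were formulated in a non-phytotoxic solvent mixture with surfactant and applied to soil after planting or to emerged plants at the 1- to 4-leaf stage.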

[2] = system: common (oilseed) sunflower; experiment: Test C pre-/postemergence herbicide test; assay type: in vivo, Helianthus annuus; conditions: for Plant response rating, Sunflower / Plant response rating (0 = no effect, 100 = complete control), Sunflower: preemergence; for Sunflower plant response rating: Preemergence, 500 g ai/ha, scale 0 to 100, 0 no effect, 100 complete control
In short: as §2

velvetleaf = experiment: Test C pre-/postemergence herbicide test; assay type: in vivo, Abutilon theophrasti; conditions: for Velvetleaf plant response rating: 500 g ai/ha
In short: as §2

pigweed = experiment: Test C pre-/postemergence herbicide test; assay type: in vivo, Amaranthus retroflexus; conditions: for Pigweed plant response rating: 500 g ai/ha
In short: as §2

large crabgrass [3] = experiment: Test C pre-/postemergence herbicide test; assay type: in vivo, Digitaria sanguinalis; conditions: for Crabgrass, Large plant response rating: 500 g ai/ha
In short: as §2

redroot pigweed = experiment: Test A pre-/postemergence herbicide test; assay type: in vivo, Amaranthus retroflexus
In short: as §1

[4] = 500 g ai/ha, visual rating 0-100, 0 no effect, 100 complete control
[5] = 125 g ai/ha, 0 to 100 scale, 0 is no effect, 100 is complete control
[6] = Postemergence, 500 g ai/ha, 0 to 100 scale, 0 no effect, 100 complete control
[7] = Postemergence, 2000 g ai/ha, 0 to 100 scale, 0 no effect, 100 complete control
[8] = Preemergence, 500 g ai/ha, visual rating, 0 to 100 scale (0 no effect, 100 complete control)
[9] = Preemergence, 2000 g ai/ha, visual rating, 0 to 100 scale (0 no effect, 100 complete control)
[10] = 62 g ai/ha, preemergence, scale 0 to 100
[11] = 125 g ai/ha, scale 0 (no effect) to 100 (complete control), visual, 12 to 14 days, preemergence
[12] = Preemergence, scale 0 to 100, 0 no effect, 100 complete control
[13] = 125 g ai/ha, scale 0 (no effect) to 100 (complete control), visual, 12 to 14 days
[14] = 250 g ai/ha, scale 0 to 100 (0 no effect, 100 complete control), visual, 12 to 14 days, preemergence
[15] = preemergence, 500 g ai/ha, visual injury, 0 to 100 scale (0 no effect, 100 complete control)
[16] = Postemergence, 250 g ai/ha, scale 0 to 100, 0 no effect, 100 complete control
[17] = postemergence, 125 g ai/ha, scale 0 to 100
[18] = postemergence, 62 g ai/ha, scale 0 to 100
[19] = Preemergence, 2000 g ai/ha, 0 to 100 scale, 0 no effect, 100 complete control
[20] = 31 g ai/ha, preemergence, scale 0 to 100

## CCN(CC)C(=O)c1ccnc(NC(=O)c2cc(C(C)(C)C)nn2CC)c1 [Compound 153]
rice; [4]
  Plant response rating, Rice: 20
rice; [5]
  Plant response rating, Rice: 10
Large crabgrass [1]; [6]
  Crabgrass, Large plant response rating: 10
Large crabgrass [1]; [7]
  Plant response rating, Crabgrass, Large: 20
Large crabgrass [1]; [8]
  Crabgrass, Large plant response rating: 25
Large crabgrass [1]; [9]
  Crabgrass, Large plant response rating: 25
goosegrass; [10]
  Plant response rating, Goosegrass: 55
goosegrass; [11]
  Plant response rating, Goosegrass: 75
goosegrass; [12]
  Goosegrass plant response rating: 95
[2]; 62 g ai/ha, scale 0 to 100
  Plant response rating, Sunflower: 0
[2]; [13]
  Plant response rating, Sunflower: 0
[2]
  Sunflower plant response rating: 0
velvetleaf; [10]
  Plant response rating, Velvetleaf: 0
velvetleaf; [11]
  Plant response rating, Velvetleaf: 20
velvetleaf; [12]
  Velvetleaf plant response rating: 100
pigweed; [10]
  Plant response rating, Pigweed: 95
pigweed; [11]
  Plant response rating, Pigweed: 100
pigweed; [12]
  Pigweed plant response rating: 100
Large crabgrass [3]; [10]
  Plant response rating, Crabgrass, Large: 0
Large crabgrass [3]; [11]
  Plant response rating, Crabgrass, Large: 0
Large crabgrass [3]; [14]
  Plant response rating, Crabgrass, Large: 0
Large crabgrass [3]; [12]
  Crabgrass, Large plant response rating: 80
Redroot pigweed; [6]
  Pigweed plant response rating: 95
Redroot pigweed; [7]
  Plant response rating, Pigweed: 100
Redroot pigweed; [9]
  Pigweed plant response rating: 100
Redroot pigweed; [15]
  Pigweed plant response rating: 100

## CCNC(=O)c1cccc(NC(=O)c2cc(C(C)(C)C)nn2CC)n1 [Compound 144]
rice; [4]
  Plant response rating, Rice: 30
rice; [5]
  Plant response rating, Rice: 20
Large crabgrass [1]; [6]
  Crabgrass, Large plant response rating: 55
Large crabgrass [1]; [7]
  Plant response rating, Crabgrass, Large: 90
Large crabgrass [1]; [8]
  Crabgrass, Large plant response rating: 90
Large crabgrass [1]; [9]
  Crabgrass, Large plant response rating: 90
goosegrass; 62 g ai/ha, preemergence
  Plant response rating (0 = no effect, 100 = complete control), Goosegrass: 30
goosegrass; [11]
  Plant response rating, Goosegrass: 60
goosegrass; Postemergence, scale 0 to 100
  Goosegrass plant response rating: 20
goosegrass; [16]
  Plant response rating, Goosegrass: 10
goosegrass; [12]
  Goosegrass plant response rating: 80
goosegrass; [17]
  Plant response rating, Goosegrass: 5
goosegrass; [18]
  Plant response rating, Goosegrass: 5
[2]; 62 g ai/ha
  Plant response rating (0 = no effect, 100 = complete control), Sunflower: 0
[2]; [13]
  Plant response rating, Sunflower: 0
[2]
  Sunflower plant response rating: 40
velvetleaf; [11]
  Plant response rating, Velvetleaf: 100
velvetleaf; Postemergence, scale 0 to 100
  Velvetleaf plant response rating: 50
velvetleaf; [16]
  Plant response rating, Velvetleaf: 50
velvetleaf; [12]
  Velvetleaf plant response rating: 100
velvetleaf; [17]
  Plant response rating, Velvetleaf: 20
velvetleaf; [18]
  Plant response rating, Velvetleaf: 0
pigweed; 62 g ai/ha, preemergence
  Plant response rating (0 = no effect, 100 = complete control), Pigweed: 90
pigweed; [11]
  Plant response rating, Pigweed: 90
pigweed; Postemergence, scale 0 to 100
  Pigweed plant response rating: 100
pigweed; [16]
  Plant response rating, Pigweed: 100
pigweed; [12]
  Pigweed plant response rating: 100
pigweed; [17]
  Plant response rating, Pigweed: 100
pigweed; [18]
  Plant response rating, Pigweed: 100
Large crabgrass [3]; 62 g ai/ha, preemergence
  Plant response rating (0 = no effect, 100 = complete control), Crabgrass, Large: 50
Large crabgrass [3]; [11]
  Plant response rating, Crabgrass, Large: 70
Large crabgrass [3]; [14]
  Plant response rating, Crabgrass, Large: 85
Large crabgrass [3]; Postemergence, scale 0 to 100
  Crabgrass, Large plant response rating: 100
Large crabgrass [3]; [16]
  Plant response rating, Crabgrass, Large: 100
Large crabgrass [3]; [12]
  Crabgrass, Large plant response rating: 100
Large crabgrass [3]; [17]
  Plant response rating, Crabgrass, Large: 10
Large crabgrass [3]; [18]
  Plant response rating, Crabgrass, Large: 0
Redroot pigweed; [6]
  Pigweed plant response rating: 100
Redroot pigweed; [7]
  Plant response rating, Pigweed: 100
Redroot pigweed; [9]
  Pigweed plant response rating: 100
Redroot pigweed; [15]
  Pigweed plant response rating: 100

## CCOC(=O)c1cc(NC(=O)c2cc(C(C)(C)C)nn2CC)ccc1OCC [Compound 95]
rice; [4]
  Plant response rating, Rice: 50
rice; [5]
  Plant response rating, Rice: 30
Large crabgrass [1]; [6]
  Crabgrass, Large plant response rating: 25
Large crabgrass [1]; [7]
  Plant response rating, Crabgrass, Large: 60
Large crabgrass [1]; [8]
  Crabgrass, Large plant response rating: 50
Large crabgrass [1]; [19]
  Crabgrass, Large plant response rating: 90
goosegrass; [20]
  Plant response rating, Goosegrass: 0
goosegrass; 62 g ai/ha, preemergence
  Plant response rating (0 = no effect, 100 = complete control), Goosegrass: 0
goosegrass; [11]
  Plant response rating, Goosegrass: 50
[2]; 31 g ai/ha, scale 0 to 100
  Plant response rating, Sunflower: 0
[2]; 62 g ai/ha
  Plant response rating (0 = no effect, 100 = complete control), Sunflower: 0
[2]; [13]
  Plant response rating, Sunflower: 0
velvetleaf; [20]
  Plant response rating, Velvetleaf: 0
velvetleaf; [11]
  Plant response rating, Velvetleaf: 60
pigweed; [20]
  Plant response rating, Pigweed: 100
pigweed; 62 g ai/ha, preemergence
  Plant response rating (0 = no effect, 100 = complete control), Pigweed: 100
pigweed; [11]
  Plant response rating, Pigweed: 100
Large crabgrass [3]; [20]
  Plant response rating, Crabgrass, Large: 10
Large crabgrass [3]; 62 g ai/ha, preemergence
  Plant response rating (0 = no effect, 100 = complete control), Crabgrass, Large: 80
Large crabgrass [3]; [11]
  Plant response rating, Crabgrass, Large: 100
Large crabgrass [3]; [14]
  Plant response rating, Crabgrass, Large: 100
Redroot pigweed; [6]
  Pigweed plant response rating: 85
Redroot pigweed; [7]
  Plant response rating, Pigweed: 100
Redroot pigweed; [8]
  Pigweed plant response rating: 100
Redroot pigweed; [19]
  Pigweed plant response rating: 100
